Source: the NIST ThermoML archive (doi:10.1021/je0504156)

Assay: xn = mol fraction of the nth substance listed
Details: 101 kPa, Liquid

Cc1cccc(O)c1 [3-methylphenol] + OCCO
Details | mass density [kg/m3] | viscosity [mPa·s]
308.15 K, x1 = 0.0998 | 1088.36 | 11.72
308.15 K, x1 = 0.1999 | 1077.36 | 12.32
308.15 K, x1 = 0.3 | 1067.31 | 12.33
308.15 K, x1 = 0.3996 | 1058.33 | 11.88
308.15 K, x1 = 0.5 | 1050.38 | 11.2
308.15 K, x1 = 0.5967 | 1043.44 | 10.37
308.15 K, x1 = 0.7002 | 1036.6 | 9.452
308.15 K, x1 = 0.8 | 1031.15 | 8.695
308.15 K, x1 = 0.8989 | 1026.2 | 8.03
308.15 K, x1 = 1 | 1021.64 | 7.701
313.15 K, x1 = 0.0998 | 1084.66 | 9.704
313.15 K, x1 = 0.1999 | 1073.58 | 10.13
313.15 K, x1 = 0.3 | 1063.47 | 10.02
313.15 K, x1 = 0.3996 | 1054.44 | 9.673
313.15 K, x1 = 0.5 | 1046.47 | 9.067
313.15 K, x1 = 0.5967 | 1039.51 | 8.417
313.15 K, x1 = 0.7002 | 1032.66 | 7.67
313.15 K, x1 = 0.8 | 1027.19 | 7.03
313.15 K, x1 = 0.8989 | 1022.22 | 6.496
313.15 K, x1 = 1 | 1017.63 | 6.12
318.15 K, x1 = 0.0998 | 1080.98 | 8.113
318.15 K, x1 = 0.1999 | 1069.79 | 8.371
318.15 K, x1 = 0.3 | 1059.61 | 8.275
318.15 K, x1 = 0.3996 | 1050.55 | 7.906
318.15 K, x1 = 0.5 | 1042.56 | 7.441
318.15 K, x1 = 0.5967 | 1035.59 | 6.893
318.15 K, x1 = 0.7002 | 1028.7 | 6.322
318.15 K, x1 = 0.8 | 1023.23 | 5.853
318.15 K, x1 = 0.8989 | 1018.22 | 5.346
318.15 K, x1 = 1 | 1013.6 | 5.022
323.15 K, x1 = 0.0998 | 1077.28 | 6.869
323.15 K, x1 = 0.1999 | 1065.98 | 7.015
323.15 K, x1 = 0.3 | 1055.75 | 6.894
323.15 K, x1 = 0.3996 | 1046.64 | 6.572
323.15 K, x1 = 0.5 | 1038.63 | 6.182
323.15 K, x1 = 0.5967 | 1031.63 | 5.763
323.15 K, x1 = 0.7002 | 1024.74 | 5.27
323.15 K, x1 = 0.8 | 1019.25 | 4.811
323.15 K, x1 = 0.8989 | 1014.22 | 4.433
323.15 K, x1 = 1 | 1009.56 | 4.158
333.15 K, x1 = 0.0998 | 1069.86 | 5.133
333.15 K, x1 = 0.1999 | 1058.35 | 5.087
333.15 K, x1 = 0.3 | 1047.97 | 4.972
333.15 K, x1 = 0.3996 | 1038.8 | 4.817
333.15 K, x1 = 0.5 | 1030.72 | 4.45
333.15 K, x1 = 0.5967 | 1023.71 | 4.145
333.15 K, x1 = 0.7002 | 1016.76 | 3.794
333.15 K, x1 = 0.8 | 1011.25 | 3.488
333.15 K, x1 = 0.8989 | 1006.16 | 3.219
333.15 K, x1 = 1 | 1001.44 | 2.98
343.15 K, x1 = 0.0998 | 1060.26 | 3.81
343.15 K, x1 = 0.1999 | 1048.59 | 3.82
343.15 K, x1 = 0.3 | 1038.14 | 3.72
343.15 K, x1 = 0.3996 | 1028.9 | 3.554
343.15 K, x1 = 0.5 | 1020.81 | 3.332
343.15 K, x1 = 0.5967 | 1013.76 | 3.096
343.15 K, x1 = 0.7002 | 1006.79 | 2.858
343.15 K, x1 = 0.8 | 1001.25 | 2.635
343.15 K, x1 = 0.8989 | 996.13 | 2.426
343.15 K, x1 = 1 | 991.33 | 2.231
353.15 K, x1 = 0.0998 | 1055.21 | 2.995
353.15 K, x1 = 0.1999 | 1043.24 | 2.967
353.15 K, x1 = 0.3 | 1032.71 | 2.882
353.15 K, x1 = 0.3996 | 1023.39 | 2.734
353.15 K, x1 = 0.5 | 1015.21 | 2.566
353.15 K, x1 = 0.5967 | 1008.1 | 2.401
353.15 K, x1 = 0.7002 | 1001.08 | 2.237
353.15 K, x1 = 0.8 | 995.5 | 2.048
353.15 K, x1 = 0.8989 | 990.32 | 1.901
353.15 K, x1 = 1 | 985.42 | 1.759
